Measured values published in PubChem BioAssay AID1963828 (Molecular Pharmacology Branch, DTP, NCI, 2024).

Test system: 991263-137-R1-J2-PDC complex spheroid viability
Assay: Anticancer human tumor 991263-137-R1-J2-PDC patient-derived colon adenocarcinoma cell line growth inhibition [POLQ]
Conditions: for IC50: curve of first compound; for viability, T/C: stronger effect = lower value
Procedure: Multicellular complex tumor spheroid response to Polymerase (POL) inhibitors (novobiocin, ART-558, RP6685) in combination with a variety of drugs and investigational agents in selected tumor cell lines
The POL inhibitors (novobiocin, ART-558, and RP6685) were evaluated both individually and in combination with standard of care and investigational anticancer small molecules within a complex spheroid model of solid tumors. . Complex spheroids include a stromal component modeled by human endothelial cells (HUVEC) and fibroblasts modeled by human mesenchymal stem cells (MSCs). The concentration ranges selected for each drug and investigational agent were based upon clinically achievable concentrations if the clinical Cmax of the agent was known.
Compounds. The drugs and investigational agents: novobiocin (NSC847541), ART-558 (NSC835418), RP-6685 (NSC848927), peposertib (NSC802822), ceralasertib (NSC780249), elimusertib (NSC800525), camonsertib (NSC841442), AZD-1390 (NSC803789), olaparib (NSC753686), talazoparib (NSC767125), rucaparib (NSC756644), sotorasib (NSC818433), MRTX-1133 (NSC836407), SN-38 (NSC673596), topotecan (NSC609699), epotoside (NSC141540), doxorubicin (NSC123127), gemcitabine (NSC613327), 5-fluorouracil (NSC19893), paclitaxel (NSC125973), vemurafenib (NSC761431), MSA-2 (NSC828583), SN-011 (NSC837082), adavosertib (NSC754352), prexasertib (NSC758257), carboplatin (NSC241240) and oxaliplatin (NSC266046), were obtained from the National Cancer Institute (NCI) Developmental Therapeutics Program Chemical Repository (21). The FDA-approved anticancer drug set is available from the Developmental Therapeutics Program at https://dtp.cancer.gov/organization/dscb/obtaining/. […] The stock solutions were prepared in dimethyl sulfoxide (DMSO, Sigma-Aldrich, St. Louis, MO, cat. D2650), except for the platinum compounds which were prepared in saline (Quality Biological, Gaithersburg, MD, cat. 114-055-101), at 800-fold the tested concentration and stored at -70 degrees C prior to their use. All drugs and investigational agents were tested over a range starting from a high concentration at or near the clinical Cmax and decreasing in half-log increments. If the clinical Cmax for an agent had not been determined, the highest concentration tested was 10 microM, except for SN-38, which was tested at a high concentration of 1 microM.
Cell Culture. All cells were maintained in an incubator at 37 degrees C and 5% CO2 with 95% humidity. The PDC lines were cultured according to standard operating procedures established by the NCI PDMR (https://pdmr.cancer.gov). Table 3 of the manuscript, lists the cell lines along with the number of the three cell types plated to form the mct-spheroids and media for tumor cell growth. After thawing, all PDC lines, except 997537-175-T-J1-PDC and 415267-285-R-J2-PDC, were cultured in Matrigel-coated flasks prepared with a working solution of 1X Ham's F-12 nutrient mix, without supplementation (Thermo Fisher Scientific, cat. 11765054), 100 U/mL penicillin-streptomycin (Thermo Fisher Scientific, cat. 15140122), and 2.5% Matrigel (Corning Inc., Corning, NY, cat. 354248) for the first three passages. The two PDC lines 997537-175-T-J1-PDC and 415267-285-R-J2-PDC were cultured on uncoated flasks. The 857933-349-R-J2-PDC line was cultured in 6C/Colon 1B media containing advanced DMEM/F-12 (Thermo Fisher Scientific, cat. 12634028), 10 mM HEPES (Thermo Fisher Scientific, cat. 15630080), 1X GlutaMAX supplement (Thermo Fisher Scientific, cat. 35050061), 0.1 mg/mL primocin (InvivoGen, San Diego, CA, cat. ant-pm-2), 10% defined fetal bovine serum, heat inactivated (HyClone Laboratories Inc., Logan, UT, cat. SH30070.03HI), 50% L-WRN conditioned media (ATCC, cat. CRL-3276), 1.25 mM N-Acetyl-L-cysteine (Sigma-Aldrich, cat. A9165), 10 mM nicotinamide (Sigma-Aldrich, cat. N0636), 1X B-27 supplement (Thermo Fisher Scientific, cat. 17504044), 1X N-2 supplement (Thermo Fisher Scientific, cat. […]
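Further: spheroids exposed to compounds for 7 days before readout.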
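Wherever viability, T/C is given: 100% = DMSO vehicle control viability.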

## CNCc1ccc(-c2[nH]c3cc(F)cc4c3c2CCNC4=O)cc1 + COC1C(OC(N)=O)C(O)C(Oc2ccc3c(O)c(NC(=O)c4ccc(O)c(CC=C(C)C)c4)c(=O)oc3c2C)OC1(C)C
Second compound 0.0316 µM
  IC50: > 10 µM
Second compound 0.1 µM
  IC50: > 10 µM
Second compound 0.316 µM
  IC50: > 10 µM
Second compound 1 µM
  IC50: > 10 µM
Second compound 3.16 µM
  IC50: > 10 µM
Second compound 10 µM
  IC50: > 10 µM
Second compound 0.0316 µM, first compound 0.0316 µM
  viability, T/C: 85.7%
Second compound 0.0316 µM, first compound 0.1 µM
  viability, T/C: 101%
Second compound 0.0316 µM, first compound 0.316 µM
  viability, T/C: 94%
Second compound 0.0316 µM, first compound 1 µM
  viability, T/C: 97.1%
Second compound 0.0316 µM, first compound 3.16 µM
  viability, T/C: 121%
Second compound 0.0316 µM, first compound 10 µM
  viability, T/C: 103%
Second compound 0.1 µM, first compound 0.0316 µM
  viability, T/C: 106%
Second compound 0.1 µM, first compound 0.1 µM
  viability, T/C: 104%
Second compound 0.1 µM, first compound 0.316 µM
  viability, T/C: 109%
Second compound 0.1 µM, first compound 1 µM
  viability, T/C: 98.5%
Second compound 0.1 µM, first compound 3.16 µM
  viability, T/C: 101%
Second compound 0.1 µM, first compound 10 µM
  viability, T/C: 95.9%
Second compound 0.316 µM, first compound 0.0316 µM
  viability, T/C: 105%
Second compound 0.316 µM, first compound 0.1 µM
  viability, T/C: 91.6%
Second compound 0.316 µM, first compound 0.316 µM
  viability, T/C: 106%
Second compound 0.316 µM, first compound 1 µM
  viability, T/C: 100%
Second compound 0.316 µM, first compound 3.16 µM
  viability, T/C: 99.6%
Second compound 0.316 µM, first compound 10 µM
  viability, T/C: 98.5%
Second compound 1 µM, first compound 0.0316 µM
  viability, T/C: 82.1%
Second compound 1 µM, first compound 0.1 µM
  viability, T/C: 111%
Second compound 1 µM, first compound 0.316 µM
  viability, T/C: 117%
Second compound 1 µM, first compound 1 µM
  viability, T/C: 104%
Second compound 1 µM, first compound 3.16 µM
  viability, T/C: 110%
Second compound 1 µM, first compound 10 µM
  viability, T/C: 97.3%
Second compound 3.16 µM, first compound 0.0316 µM
  viability, T/C: 92.2%
Second compound 3.16 µM, first compound 0.1 µM
  viability, T/C: 112%
Second compound 3.16 µM, first compound 0.316 µM
  viability, T/C: 111%
Second compound 3.16 µM, first compound 1 µM
  viability, T/C: 106%
Second compound 3.16 µM, first compound 3.16 µM
  viability, T/C: 119%
Second compound 3.16 µM, first compound 10 µM
  viability, T/C: 102%
Second compound 10 µM, first compound 0.0316 µM
  viability, T/C: 107%
Second compound 10 µM, first compound 0.1 µM
  viability, T/C: 110%
Second compound 10 µM, first compound 0.316 µM
  viability, T/C: 105%
Second compound 10 µM, first compound 1 µM
  viability, T/C: 102%
Second compound 10 µM, first compound 3.16 µM
  viability, T/C: 119%
Second compound 10 µM, first compound 10 µM
  viability, T/C: 106%
